# Patent US9695173B2, “Pharmaceutical compositions for the treatment of capillary arteriopathy” (SINOXA PHARMA GMBH, priority 2006, dated 2017)
# Key:
# Assay type in all cases: in vivo, rat
# male Sprague-Dawley rats [1] = assay: Monocrotaline pulmonary hypertension model, treatment from day 14: right ventricular and systemic pressure
# Experimental: (§1) 1 monocrotaline (60 mg/kg; Sigma) was administered to rats on the day of the experiment. For this purpose, the substance was dissolved in 0.5 molar hydrochloric acid and the pH value was then adjusted to 7.4 with 0.5 molar sodium hydroxide solution. The solution was administered to male Sprague-Dawley rats as a single subcutaneous injection in a dose of 60 mg/kg. The same volume of isotonic saline solution was administered to control animals.
# (§2) The dosage specifications in this case relate to the free base of the substances. The substances were used as hydrogenmaleate salt or free base. They were introduced into distilled water in the presence of traces of ascorbic acid and administered by oesophageal tube in the morning and in the evening in a volume of 2 mL. The same quantity of water was administered to control animals.
# (§3) On day 28 of the experiment, 2 hours after the last administration of the substance, the animals were put under general anesthesia using pentobarbital. Then, a tracheostomy was performed on the animals and the animals were respirated at 10 ml/kg and a frequency of […] (SAR830A/P; IITC). Anesthesia was maintained by inhalation of isoflurane.
# The mean arterial pressure and the right ventricular systolic blood pressure were determined. The systemic arterial pressure was measured using a Millar catheter in the left carotid artery. A millar catheter with a pressure sensor (Millar Instruments, model SPR-534) was inserted through the right jugular vein and pushed up to the right ventricle of the heart and used for measuring the right ventricular pressure (RVSP). The signal was amplified by means of a HSE coupler Series 500 and supplied to a registration unit for evaluation.
# male Sprague-Dawley rats [2] = assay: Monocrotaline pulmonary hypertension model, treatment from day 14: hydroxyproline (collagen) content of the lung; conditions: monocrotaline 60 mg/kg s.c. day 1; 0.25 mg/kg Lisuride bid or 2.5 mg/kg Terguride bid, days 14-28; right lung day 28; averages ± SEM, N=6
# Experimental: as §1, §2
# After the pressure measurements had been performed, the rats were perfused with physiological saline solution. The right lung was removed, deep-frozen and processed for determining the collagen content. To this end, the tissue was first homogenized and analyzed, drawing on the method by Berg (Meths Enzymol. 82, 372 (1982)). […] The color complex created was measured photometrically at 560 nm and the hydroxprolin content of the samples was determined by means of a calibration curve. […]
# male Sprague-Dawley rats [3] = assay: Monocrotaline pulmonary hypertension model, treatment days 1-28: RVSP and SAP; conditions: monocrotaline 60 mg/kg s.c. day 1, 0.4 mg/kg Terguride bid (table), measured day 28, averages ± SD, N=4
# Experimental: as §1
# (§4) […] Terguride was introduced into distilled water in the presence of traces of ascorbic acid and administered by oesophageal tube in the morning and in the evening in a volume of 2 mL. The same quantity of physiological saline solution was administered to control animals.
# as §3
# The mean arterial pressure and the right ventricular systolic blood pressure were determined. The systemic arterial pressure was measured using a Millar catheter in the left carotid artery. […]
# male Sprague-Dawley rats [4] = assay: Monocrotaline pulmonary hypertension model, treatment days 1-28: right ventricular hypertrophy; conditions: 0.4 mg/kg Terguride bid (table), dry weights, averages ± SD, N=4
# Experimental: as §1, §4
# After the pressure measurements had been performed, the rats were perfused with physiological saline solution. The heart was removed and prepared by dissection of the right ventricle, the septum as well as the left ventricle of each heart. The tissue preparations were freeze-dried and the dry weights were then determined by weighing out. For each individual animal, the quotient: weight of the right ventricle/weight of the left ventricle and septum (RV/LV+S) was determined from these animals as a measure for right ventricular hypertrophy.
# male Sprague-Dawley rats [5] = assay: Monocrotaline pulmonary hypertension model, treatment days 1-28: muscularization of arterial capillary vessels of the lung; conditions: 0.4 mg/kg Terguride bid (table), lung arterial capillary vessels 20-50 μm, averages ± SD, N=4
# Experimental: as §1, §4
# The lungs were removed, fixated in formalin and embedded in paraffin. Paraffin sections were obtained and an immunohistochemical double staining was carried out according to standard protocols. Smooth muscle cells of the vessels were stained with an antibody against actin and the endothelium was stained by means of antibodies against von Willebrand factor. […] The vessels were subdivided into 3 categories: non-muscularized vessels with 20%, partially muscularized vessels with >20%, but <70%, and fully muscularized vessels with >70% lining of the cross-section of the vessel with smooth muscle cells.
# [6] = monocrotaline 60 mg/kg s.c. day 1, 0.25 mg/kg Lisuride bid or 2.5 mg/kg Terguride bid by oesophageal tube, days 14-28, measured day 28, averages ± SEM, N=6
Structure (SMILES),RVPsys (systolic pressure in the right ventricle) (male Sprague-Dawley rats [1]; [6]),"Increase in pressure in the right ventricle (in words) (male Sprague-Dawley rats [1]; monocrotaline rats, therapy started 14 days after monocrotaline)",Hydroxyproline content of the lung (male Sprague-Dawley rats [2]),SAP (systemic arterial pressure) (male Sprague-Dawley rats [1]; [6]),RVSP (right ventricular systolic pressure) (male Sprague-Dawley rats [3]),SAP (systemic arterial pressure) (male Sprague-Dawley rats [3]),RV/LV + S (weight of right ventricle vs. weight of left ventricle and septum) (male Sprague-Dawley rats [4]),Proportion of fully muscularized vessel (male Sprague-Dawley rats [5]),Proportion of non-muscularized vessel (male Sprague-Dawley rats [5]),Proportion of partially muscularized vessel (male Sprague-Dawley rats [5])
"CCN(CC)C(=O)N[C@H]1C=C2c3cccc4[nH]cc(c34)C[C@H]2N(C)C1 [Lisuride, 3-(9,10-didehydro-6-methylergoline-8alpha-yl)-1,1-diethylurea]",43 ± 7 mmHg,reduces,3.3 ± 0.8 ug/g protein,,,,,,,
"CCN(CC)C(=O)N[C@H]1C[C@@H]2c3cccc4[nH]cc(c34)C[C@H]2N(C)C1 [Terguride, (+)-1,1-diethyl-3-(6-methyl-8α-ergolinyl)-urea]",39 ± 3 mmHg,,2.7 ± 1.2 ug/g protein,111 ± 7 mmHg,36.4 ± 3.6 mmHg,97.5 ± 15.2 mmHg,0.33 ± 0.08,21.3 ± 12.6%,1.9 ± 1.6%,57.8 ± 14.6%
